We go through 8 compounds from ChEMBL document CHEMBL1136282, “Design and synthesis of small chemical inhibitors containing different scaffolds for lck SH2 domain” (Bioorg Med Chem Lett, 2003).

Molecules are shown by their SMILES. Square brackets hold non-standard residues; d marks the D form. Peptide text beside a SMILES is read from it. pY = N[C@@H](Cc1ccc(OP(=O)(O)O)cc1)C(=O)O

For this assay, the target named is Tyrosine-protein kinase Lck (Homo sapiens, UniProt P06239). Put plainly: Inhibition of binding to p56 Lck tyrosine kinase SH2 domain.
Chain of Tyrosine-protein kinase Lck (P06239 whole entry, the tested form may be a part): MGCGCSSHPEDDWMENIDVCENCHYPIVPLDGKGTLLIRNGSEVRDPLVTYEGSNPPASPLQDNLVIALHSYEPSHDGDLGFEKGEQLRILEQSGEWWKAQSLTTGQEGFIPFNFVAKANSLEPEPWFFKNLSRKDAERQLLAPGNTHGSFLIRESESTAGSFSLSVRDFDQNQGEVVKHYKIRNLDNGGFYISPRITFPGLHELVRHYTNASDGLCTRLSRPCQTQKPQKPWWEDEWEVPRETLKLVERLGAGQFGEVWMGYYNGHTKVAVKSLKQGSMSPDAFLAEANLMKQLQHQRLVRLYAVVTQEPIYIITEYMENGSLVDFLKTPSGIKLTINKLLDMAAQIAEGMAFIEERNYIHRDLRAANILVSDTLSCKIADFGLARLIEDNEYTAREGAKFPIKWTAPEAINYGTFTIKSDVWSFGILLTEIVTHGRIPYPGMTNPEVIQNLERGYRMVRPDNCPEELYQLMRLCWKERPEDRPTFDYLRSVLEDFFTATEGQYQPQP
The IC50 is the concentration at which inhibition is half-maximal. `COC(=O)[C@@H](Cc1ccc(O)c(O)c1)NC/C=C/c1ccc(O)c(O)c1` came in with an IC50 of more than 500 µM.

Compound `O=C(/C=C/c1ccc(O)c(O)c1)N[C@H](Cc1ccc(O)c(O)c1)C(=O)O` gave an IC50 of 20 µM.

`COC(=O)[C@@H](Cc1ccc(O)c(O)c1)NC(=O)/C=C/c1ccc(O)c(O)c1`: the IC50 stood at 121 µM.

For `COC(=O)[C@@H](Cc1ccc(O)c(O)c1)N(C)C(=O)/C=C/c1ccc(O)c(O)c1`, the IC50 is 149 µM.

`O=C(/C=C/c1ccc(O)c(O)c1)O[C@H](Cc1ccc(O)c(O)c1)C(=O)O` [ROSMARINIC ACID] yielded an IC50 of 24 µM.

In turn, `COC(=O)[C@@H](Cc1ccc(O)c(O)c1)/N=C(S)\C=C\c1ccc(O)c(O)c1` registered an IC50 of 162 µM.

`COC(=O)[C@@H](Cc1ccc(O)c(O)c1)NC(=O)NCc1ccc(O)c(O)c1` came in with an IC50 of 98 µM.

Regarding `CC[C@H](C)[C@H](NC(=O)[C@H](CCC(=O)O)NC(=O)[C@H](CCC(=O)O)NC(=O)[C@H](Cc1ccc(OP(=O)(O)O)cc1)NC(C)=O)C(=O)N[C@@H](CCC(=O)O)C(=O)O` (Ac-[pY]EEIE-OH), the half-inhibitory concentration (IC50) was 1.5 µM.
